Consider five compounds from patent US20250326814A1, “MODIFIED OXYNTOMODULIN AND METHODS OF USE THEREOF” (OPKO BIOLOGICS LTD., priority 2024, published 2025).

Starred links: 1 amine or outer side, 2 acyl side, 3 side chain; linkers in the order of their positions; H or OH if unused. Non-standard residues stand in square brackets, D forms with d. Residues, ends and D or L forms follow the SMILES beside them. Groups on a side chain read outwards from the residue. *: point of attachment. C20 diacid = O=C(O)CCCCCCCCCCCCCCCCCCC(=O)*; γGlu = O=C(O)[C@H](CCC(=O)[*:2])N[*:1]; AEEA = NCCOCCOCC(=O)O; Aib = CC(C)(N)C(=O)O

For data set [1], the system named is DIO mice. Put plainly: Body composition (fat and lean tissue mass) in DIO mice. It counts as in vivo. Here is the method: The body composition of mice was assessed by an EchoMRI 3 in 1 Body composition analyzer (EchoMRI, US). Non-anaesthetized animals were placed in a plastic tube inside the MRI scanner for approximately 80 seconds. The body composition was reported as fat mass and fat free mass (lean mass).
(§1) Sixty C57BL/6JRj male mice were fed a high fat diet (60% HFD, D12492—Ssniff) for 20 weeks before treatment start. […] Body weight and food intake (24 h) were measured daily. In week 3, an OGTT study was performed. Baseline and preterminal fasting blood glucose and plasma insulin were assessed. Preterminal plasma TC and TG were assessed. Terminal endpoints included liver and heart weight, liver TC, TG, […] and lipid content (HE staining).

For data set [2], the system named is DIO mice. In words: Liver H&E staining for lipid droplets / liver lipid in DIO mice. In kind it is in vivo. The conditions noted are these: 15 nmol/kg QD SC. The procedure: In summary, glass slides with paraffin embedded sections were deparaffinated in xylene and rehydrated in series of graded ethanol.
Slides treated with histochemical and immunohistochemical stains were scanned using a 20× objective in a ScanScope AT slide scanner (Aperio).
Hematoxylin & Eosin (H&E) staining: Sections of FFPE tissue were incubated in Mayer's Hematoxylin (Dako), washed in tap water, stained in Eosin Y solution (Sigma-Aldrich), dehydrated in graded ethanol and cover slipped.
as §1

Data set [3] has as its system DIO mice. Put plainly: Body weight and food intake in DIO mice, 4 weeks daily treatment. The conditions noted are these: for food consumption / cumulative food intake (FIG. 17B, 18B): OPK-88604 vs semaglutide; for cumulative food intake on day 28, P compared to Vehicle (FIG. 15): 15 nmol/kg q.d. SC, 4 weeks. In kind it is in vivo. Here is the method:
(§2) The animals were individually weighed and analyzed for lipid and cholesterol levels prior to treatment and following completion of the study. The levels of fasting glucose and insulin levels were analyzed, and oral glucose tolerance test was performed and compared between groups The levels of plasma triglycerides and cholesterol were evaluated at the end of study and compared to base levels prior to treatment. Levels of total cholesterol, triglycerides and glycogen were also examined at the end of study. Histology of liver was used to analyze for lipid droplets in the liver. All tests were conducted using routine methods known in the art.
The mice used in the studies were the gubra diet-induced obese (DIO) mouse model. This mouse model is fed a high fat diet that results in rapid weight gain. The DIO mice were based on male C57BI/6J mice and ready for experiment after 18 weeks on a 60% high fat diet.
To ensure accurate monitoring of weight changes over the course of the study, the animals were weighed daily with precision, prior to dosing at 7:00 AM. Body weight data was recorded in two formats: (1) Absolute measurements: The direct weight of the animal each day, and (2) Relative measurements: The weight expressed as a percentage relative to the body weight recorded on Day 1.
as §1

Data set [4] relates to DIO mice. In words: Plasma cholesterol and triglyceride in DIO mice. In kind it is in vivo. The conditions noted are these: 15 nmol/kg q.d. The procedure:
For termination blood samples, during anesthesia with isoflurane, the abdominal cavity was opened, and cardiac blood was drawn with a syringe into a Microvette/Vacuette of appropriate dimensions with anticoagulant and mixed by inversion 5 times. Blood was placed at 4° C. until centrifuged at 3000 g for 10 minutes. The plasma supernatants were transferred to new tubes and immediately frozen on dry ice. The samples were stored at −70° C.
Alanine transaminase (ALT), Aspartate transaminase (AST), Triglycerides (TG) and Total Cholesterol (TC): Blood samples were collected in heparinized tubes and plasma was separated and stored at −70° C. until analysis. Samples were measured using commercial kits (Roche Diagnostics), on the cobas c 501 autoanalyzer.
as §1

Data set [5] has as its system DIO mice. Put plainly: Fasting blood glucose and plasma insulin in DIO mice. The conditions noted are these: 15 nmol/kg q.d. In kind it is in vivo. The procedure: For in vivo blood samples, tail-vein, tongue or cheek blood was collected in a Microvette tube of appropriate dimensions with anticoagulant and mixed by inversion 5 times. Blood was placed at 4° C. until centrifuged at 3000 g for 10 minutes. The plasma supernatants were transferred to new tubes and immediately frozen on dry ice. The samples were stored at −70° C.
Insulin: Blood samples were collected in heparinized tubes and plasma was separated and stored at −70° C. until analysis. Insulin was measured using the commercial MSD platform (Meso Scale Diagnostics).
as §1

The target of data set [6] is T1, GCGR (Homo sapiens, UniProt P47871). In words: CBA potency assay, GCGR (Tables 10 and 11). It counts as cell-based.
Description: (§3) The impact of the longevity-enabling molecule (PEG Vs. FA-peptide/binder complex) on the peptide potency was studied.
The target in data set [7] is T2, GLP1 (Homo sapiens, UniProt P43220). In words: CBA potency assay, GLP1 (Tables 10 and 11). In kind it is cell-based.
Description: as §3
For data set [8], the target named is T1, GCGR. In words: Glucagon activity in vitro of PEGylated and acylated OXM peptide analogs (Table 12). It counts as cell-based. The conditions noted are these: for GCGR/GLP-1R: ratio of EC50 activity.
Protocol: (§4) The potential benefits of novel acylated OXM products relative to the PEGylated OXM peptide were evaluated for GLP-1 and Glucagon activity in vitro, molecular weight, dosing, and efficacy in a DIO Mouse model.
(§5) The potency of the acylated OXM peptides was compared with the native OXM peptide alone and Pegylated OXM peptide to evaluate the impact of acylation on GLP-1 and Glucagon activities.
In data set [9] the target is T2, GLP1. Put plainly: GLP-1 activity in vitro of PEGylated and acylated OXM peptide analogs (Table 12). It counts as cell-based.
Protocol: as §4, §5
The target in data set [10] is T3, glucagon-like peptide-1 (GLP1) receptor (Homo sapiens, UniProt P43220).
T3 construct: expressed in transfected cells; host or cells: CHO-K1
Put plainly: GLP-1 activity EC50 of OXM analogs and GLP-1 therapeutics (Example 4, Table 9). It counts as cell-based. The conditions noted are these: Example 4; read-out: GLP-1 activity (EC50).
Description: The potencies of the modified OXM analogs newly disclosed in the present application, the OXM Analog alone, and the PEGylated OXM analog were examined and compared by measuring the EC50 of both receptors, glucagon-like peptide-1 (GLP1) and glucagon (GCGR).

The subject of data set [11] is DIO mice. In words: Weight loss in DIO mice with OPK-88604 and OPK-88006, 30 nmoles/kg. In kind it is in vivo. The conditions noted are these: vs placebo. Here is the method: as §2
DIO mice with weights of around 55 grams were divided into three groups and treated with placebo, 30 nmoles/kg of OPK-88604, or 30 nmoles/kg of OPK-88006 for 4 weeks. The animals were weighed daily for the period of treatment.

Data set [12] in a line: Viscosity of the formulated PEGylated OXM product. It counts as physicochemical.

T2 sequence (P43220 24-463): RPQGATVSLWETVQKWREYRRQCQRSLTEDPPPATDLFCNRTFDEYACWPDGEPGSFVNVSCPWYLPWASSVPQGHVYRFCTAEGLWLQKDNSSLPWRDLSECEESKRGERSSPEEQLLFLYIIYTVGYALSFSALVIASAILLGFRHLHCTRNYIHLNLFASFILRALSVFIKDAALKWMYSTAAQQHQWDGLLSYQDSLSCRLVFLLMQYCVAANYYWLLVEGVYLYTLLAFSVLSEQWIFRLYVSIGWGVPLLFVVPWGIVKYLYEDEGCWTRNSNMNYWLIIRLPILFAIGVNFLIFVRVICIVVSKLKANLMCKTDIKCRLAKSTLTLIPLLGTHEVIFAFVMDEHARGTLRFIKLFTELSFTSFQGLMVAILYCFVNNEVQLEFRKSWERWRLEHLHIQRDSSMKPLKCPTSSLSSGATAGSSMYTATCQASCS
T1 sequence (P47871 26-477): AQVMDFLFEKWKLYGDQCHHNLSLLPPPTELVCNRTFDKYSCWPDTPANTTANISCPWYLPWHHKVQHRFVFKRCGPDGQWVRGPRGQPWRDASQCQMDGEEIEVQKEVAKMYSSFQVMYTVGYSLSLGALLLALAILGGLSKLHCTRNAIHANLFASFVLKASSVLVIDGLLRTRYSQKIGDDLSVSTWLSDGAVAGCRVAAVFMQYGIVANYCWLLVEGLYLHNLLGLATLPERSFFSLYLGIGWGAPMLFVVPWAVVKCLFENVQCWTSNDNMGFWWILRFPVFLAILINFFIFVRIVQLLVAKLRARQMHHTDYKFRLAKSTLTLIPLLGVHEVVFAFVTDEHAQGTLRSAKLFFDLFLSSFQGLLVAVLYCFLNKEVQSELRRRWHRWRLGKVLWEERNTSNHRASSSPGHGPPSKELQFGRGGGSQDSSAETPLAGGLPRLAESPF
T3 sequence (P43220 24-463): as the sequence (P43220 24-463) above

Consider Semaglutide, for which, in the data set with DIO mice [1] (15 nmol/kg QD SC), the “change in lean tissue mass from baseline, P compared to Vehicle (FIG. 23B)” value is listed as under 0.05 and the “relative fat tissue mass / relative lean tissue mass at week 4, P compared to Vehicle (FIG. 22A, 22B)” value is reported as under 0.05. Besides, in the data set on DIO mice [1] (15 nmol/kg daily, 28 days, OPK-88604 vs semaglutide), the “relative lean body mass and fat mass change from baseline on day 28 (FIG. 24A, 24B)” value is given as “statistically similar”. The “relative liver lipid / total liver lipid, P compared to Vehicle (FIG. 31A, 31B)” value in the data set on DIO mice [2] is given as under 0.05. Further, the “absolute body weight at day 28, P compared to Vehicle (FIG. 16A)” value in the data set with DIO mice [3] (15 nmol/kg QD SC) is reported as under 0.01. For the same compound, in the data set with DIO mice [3] (15 nmol/kg daily, 28 days), the “food consumption / cumulative food intake (FIG. 17B, 18B)” value is “reduced food consumption significantly more than OPK-88604 treatment”. The “weight loss from baseline (FIG. 17A, 18A)” value in the data set with DIO mice [3] (15 nmol/kg daily, 28 days, OPK-88604 vs semaglutide vs placebo) is reported as “similar”. Besides, in the data set on DIO mice [3] (15 nmol/kg daily, 28 days, listed as semaglutide), the “food consumption / cumulative food intake (FIG. 17B, 18B)” value was “significantly decreased”. For the same compound, the “cumulative food intake on day 28, P compared to Vehicle (FIG. 15)” value in the data set with DIO mice [3] was under 0.05.

Turning to Tirzepatide [reference compound], in the data set on DIO mice [1] (15 nmol/kg QD SC), the “absolute fat tissue mass at week 4, P compared to Vehicle (FIG. 21A)” value is on record as under 0.001 and the “relative fat tissue mass / relative lean tissue mass at week 4, P compared to Vehicle (FIG. 22A, 22B)” value is on record as under 0.001. Besides, the “plasma triglyceride at termination, P compared to Vehicle (FIG. 32B)” value in the data set on DIO mice [4] is under 0.01. Also, the “relative liver lipid / total liver lipid, P compared to Vehicle (FIG. 31A, 31B)” value in the data set on DIO mice [2] is under 0.01. In the data set with DIO mice [5], the “glucose tolerance plasma insulin at week 1, P compared to Vehicle (FIG. 36A)” value is on record as under 0.01 and the “glucose tolerance plasma insulin at week 4, P compared to Vehicle (FIG. 36B)” value is under 0.01. In addition, the “cumulative food intake on day 28, P compared to Vehicle (FIG. 15)” value in the data set with DIO mice [3] was under 0.001.

In the case of `CC[C@H](C)[C@H](NC(=O)[C@H](CC(N)=O)NC(=O)[C@H](CC(N)=O)NC(=O)[C@H](CCCNC(=N)N)NC(=O)[C@H](CC(N)=O)NC(=O)[C@H](CCCNC(=N)N)NC(=O)CNC(=O)C(C)(C)NC(=O)[C@H](CC(N)=O)NC(=O)[C@H](CC(C)C)NC(=O)[C@H](CC(C)C)NC(=O)[C@H](Cc1c[nH]c2ccccc12)NC(=O)[C@H](CCC(N)=O)NC(=O)[C@@H](NC(=O)[C@H](Cc1ccccc1)NC(=O)[C@H](CCC(=O)O)NC(=O)[C@H](CCC(N)=O)NC(=O)[C@H](C)NC(=O)[C@H](CCCCN)NC(=O)[C@H](CCCCN)NC(=O)[C@H](CO)NC(=O)[C@H](CC(=O)O)NC(=O)[C@H](CC(C)C)NC(=O)[C@H](Cc1ccc(O)cc1)NC(=O)[C@H](CCCCN)NC(=O)[C@H](CO)NC(=O)[C@H](Cc1ccc(O)cc1)NC(=O)[C@H](CC(=O)O)NC(=O)[C@H](CO)NC(=O)[C@@H](NC(=O)[C@H](Cc1ccccc1)NC(=O)[C@@H](NC(=O)CNC(=O)[C@H](CCC(N)=O)NC(=O)C(C)(C)NC(=O)[C@@H](N)Cc1c[nH]cn1)[C@@H](C)O)[C@@H](C)O)C(C)C)C(=O)N[C@@H](C)C(=O)N[C@@H](CS)C(=O)N[C@@H](CS)C(N)=O` [OPK-88003 KPI], the “% EC50 compare to KPI (GCGR)” value at GCGR [6] (Table 10) was found to be 100%; on GCGR [6] (Table 11, + HSA), 129%; at GCGR [6] (Table 11, without HSA) it was 100%. The 50% effective concentration (EC50) at GCGR [6] (Table 10) came out at 0.6 nM; at GCGR [6] (Table 11, + HSA), 1.06 nM; at GCGR [6] (Table 11, without HSA) it was 1.37 nM; on GLP1 [7] (Table 10) it was 0.127 nM; at GLP1 [7] (Table 11, + HSA) it was 0.187 nM; at GLP1 [7] (Table 11, without HSA), 0.201 nM. Further, the EC50 on GCGR [8] stood at 0.0731 nM; on GLP1 [9], 0.0168 nM; in data set [10], 0.105 nM. Moreover, the “EC50 ratio (GCGR\GLP-1R)” value was found to be 4.7 at GCGR [6] (Table 10); 5.7 at GCGR [6] (Table 11, + HSA); 6.8 on GCGR [6] (Table 11, without HSA). Besides, the “% EC50 compare to KPI (GLP1)” value at GLP1 [7] (Table 10) stood at 100%; on GLP1 [7] (Table 11, + HSA) it was 107%; on GLP1 [7] (Table 11, without HSA) it was 100%. Further, the GCGR/GLP-1R on GCGR [8] was determined as 4.4.

With `CC[C@H](C)[C@H](NC(=O)[C@H](CC(N)=O)NC(=O)[C@H](CC(N)=O)NC(=O)[C@H](CCCNC(=N)N)NC(=O)[C@H](CC(N)=O)NC(=O)[C@H](CCCNC(=N)N)NC(=O)CNC(=O)C(C)(C)NC(=O)[C@H](CC(N)=O)NC(=O)[C@H](CC(C)C)NC(=O)[C@H](CC(C)C)NC(=O)[C@H](Cc1c[nH]c2ccccc12)NC(=O)[C@H](CCC(N)=O)NC(=O)[C@@H](NC(=O)[C@H](Cc1ccccc1)NC(=O)[C@H](CCC(=O)O)NC(=O)[C@H](CCC(N)=O)NC(=O)[C@H](C)NC(=O)[C@H](CCCCN)NC(=O)[C@H](CCCCN)NC(=O)[C@H](CO)NC(=O)[C@H](CC(=O)O)NC(=O)[C@H](CC(C)C)NC(=O)[C@H](Cc1ccc(O)cc1)NC(=O)[C@H](CCCCN)NC(=O)[C@H](CO)NC(=O)[C@H](Cc1ccc(O)cc1)NC(=O)[C@H](CC(=O)O)NC(=O)[C@H](CO)NC(=O)[C@@H](NC(=O)[C@H](Cc1ccccc1)NC(=O)[C@@H](NC(=O)CNC(=O)[C@H](CCC(N)=O)NC(=O)C(C)(C)NC(=O)[C@@H](N)Cc1c[nH]cn1)[C@@H](C)O)[C@@H](C)O)C(C)C)C(=O)N[C@@H](C)C(=O)N[C@@H](CCCCNC(=O)COCCOCCNC(=O)COCCOCCNC(=O)CC[C@H](NC(=O)CCCCCCCCCCCCCCCCCCC(=O)O)C(=O)O)C(=O)NCC(N)=O` [Variant 5] (H-H[Aib]QGTFTSDYSKYLDSKKAQEFVQWLLN[Aib]GRNRNNIAK([AEEA-AEEA-γGlu-C20 diacid])G-NH2), in the data set on DIO mice [11], the “weight loss over 4 weeks (FIG. 41A, 41B)” value is on record as “significant weight loss over 4 weeks”. At GCGR [8], it took 0.31 nM to reach a half-maximal effect (EC50) and the GCGR/GLP-1R worked out at 16.3. The compound further came in with an EC50 at GLP1 [9] of 0.019 nM.

“OPK-88003 API: SEQ ID NO: 3 where Xaa38=Cys-PEG20 and Xaa39=Cys-PEG20”: the “viscosity of the formulated product” value in data set [12] is “high viscosity”.
